Key:
Assay type in all cases: cell-based
EGFR L858R (Ba/F3 cells) = biological target: T1, EGFR L858R (Ba/F3 cells) (Homo sapiens, UniProt P00533, L858R); assay: Inhibitor activity on EGFR-dependent cell growth (CellTiter-Glo, 72 h), Ba/F3 EGFR L858R; settings: read-out: BaF3 L858R IC50
T1 construct: expressed in transfected cells; host or cells: Ba/F3 (murine pro-B cells), retroviral transduction, puromycin selection, IL3-independent pool
Source text: (§1) Example A. Inhibitor Activity on EGFR-Dependent Cell Growth
(§2) Cell lines are generated by transducing Ba/F3 cells with retroviruses containing vectors with EGFR WT, EGFR L858R, EGFR exon 19del, EGFR L858R/C797S, EGFR exon 20 NPG Ins D770_N771, EGFR exon 20 ASV Ins V769_D770, EGFR exon 20 SVD Ins D770_N771, or EGFR exon 20 FQEA Ins A763_V764 genes and a puromycin selection marker. Transduced cells are selected with puromycin for 7 days and are then be transferred into culture media without Interleukin 3 (IL3). EGFR WT cells are maintained with supplemental EGF. Surviving cells are confirmed to express EGFR by Western blot and maintained as a pool. The IC50 date were included in Table 6 and Table 7.
(§3) 1.1 Cells are harvested from flask into cell culture medium and the cell number counted.
(§4) 1.2 Cells are diluted with culture medium to the desired density and 40 μL of cell suspension is added into each well of 384-well cell culture plate and the seeding density is 800 (FQEA, exon 19del), 600 (WT, NPG, L858R/C797S), or 400 (ASV, SVD, L858R) cells/well.
(§5) 2 Compound Preparation and Treatment
(§6) 2.1 Test compounds are dissolved to 10 mM in a DMSO stock solution. 45 μL of stock solution is transferred to a 384 polypropylene plate (pp-plate). Perform 3-fold, 10-point dilution via transferring 15 μL compound into 30 μL DMSO using a TECAN (EVO200) liquid handler.
(§7) 2.2 Spin plates at room temperature at 1,000 RPM for 1 minute.
(§8) 2.3 Transfer 120 nL of diluted compound from compound source plate into the cell plate.
(§9) 2.4 After compound treatment for 72 hours, perform CTG detection for compound treatment plates as described in “Detection” section.
(§10) 3.1 Plates are removed from incubators and equilibrated at room temperature for 15 minutes.
(§11) 3.2 Thaw the CellTiter Glo reagents and allow to equilibrate to room temperature before the experiment.
(§12) 3.3 Add 40 μL of CellTiter-Glo reagent into each well (at 1:1 to culture medium). Then place the plates at room temperature for 30 min followed by reading on EnVision.
(§13) 4.1 Inhibition activity is calculated following the formula below:
(§14) % Inhibition=100×(LumHC−LumSample)/(LumHC−LumLC) • where HC is obtained from cells treated with 0.1% DMSO only; and LC is obtained from culture medium only.
(§15) 4.2 2. Calculate the IC50 by fitting the Curve using Xlfit (v5.3.1.3), equation 201.
(§16) Y=Bottom+(Top−Bottom)/(1+10^((Log IC50−X)*HillSlope))

[1] = biological target: EGFR exon 19del (Ba/F3 cells) (Homo sapiens, UniProt P00533); assay: Inhibitor activity on EGFR-dependent cell growth (CellTiter-Glo, 72 h), Ba/F3 EGFR exon 19del; settings: Ba/F3 EGFR exon 19del cell growth, read-out: BaF3 Del19 IC50
Source text: as §1, §2, §3, §4, §5, §6, §7, §8, §9, §10, §11, §12, §13, §14, §15, §16

EGFR WT (Ba/F3 cells) = biological target: T2, EGFR WT (Ba/F3 cells) (Homo sapiens, UniProt P00533); assay: Inhibitor activity on EGFR-dependent cell growth (CellTiter-Glo, 72 h), Ba/F3 EGFR WT; settings: read-out: BaF3 WT IC50
T2 construct: expressed in transfected cells; host or cells: Ba/F3 (murine pro-B cells), retroviral transduction, puromycin selection, maintained with EGF
Outline: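 This growth assay used Ba/F3 cells that depend on wild-type EGFR and are kept in EGF without IL3. Compounds were made up as 10 mM DMSO stocks and diluted 3-fold over 10 points. 120 nL went onto 600 cells/well. After 72 hours, 40 μL CellTiter-Glo was added and luminescence read on EnVision after 30 min.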

[2] = biological target: T3, EGFR exon 20 NPG Ins D770_N771 (Ba/F3 cells) (Homo sapiens, UniProt P00533, INS770NPG); assay: Inhibitor activity on EGFR-dependent cell growth (CellTiter-Glo, 72 h), Ba/F3 EGFR exon 20 NPG Ins; settings: read-out: BaF3 NPG IC50
T3 construct: expressed in transfected cells; host or cells: Ba/F3 (murine pro-B cells), retroviral transduction, puromycin selection, IL3-independent pool
Outline: (§17)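 IC50s derive from a sigmoidal dose–response fit of CellTiter-Glo signal. The signal was normalised between […]-treated cells and cell-free medium. Ba/F3 mutant-EGFR cells, seeded at 400–800/well depending on the line, had 72 h of exposure to a 10-point, 3-fold compound series.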

[3] = biological target: T4, EGFR exon 20 ASV Ins V769_D770 (Ba/F3 cells) (Homo sapiens, UniProt P00533, INS769ASV); assay: Inhibitor activity on EGFR-dependent cell growth (CellTiter-Glo, 72 h), Ba/F3 EGFR exon 20 ASV Ins; settings: read-out: BaF3 ASV IC50
T4 construct: expressed in transfected cells; host or cells: Ba/F3 (murine pro-B cells), retroviral transduction, puromycin selection, IL3-independent pool
Outline: as §17

[4] = biological target: T5, EGFR exon 20 SVD Ins D770_N771 (Ba/F3 cells) (Homo sapiens, UniProt P00533, INS770SVD); assay: Inhibitor activity on EGFR-dependent cell growth (CellTiter-Glo, 72 h), Ba/F3 EGFR exon 20 SVD Ins; settings: read-out: BaF3 SVD IC50
T5 construct: expressed in transfected cells; host or cells: Ba/F3 (murine pro-B cells), retroviral transduction, puromycin selection, IL3-independent pool
Outline: as §17

[5] = biological target: T6, EGFR exon 20 FQEA Ins A763_V764 (Ba/F3 cells) (Homo sapiens, UniProt P00533, INS763FQEA); assay: Inhibitor activity on EGFR-dependent cell growth (CellTiter-Glo, 72 h), Ba/F3 EGFR exon 20 FQEA Ins; settings: read-out: BaF3 FQEA IC50
T6 construct: expressed in transfected cells; host or cells: Ba/F3 (murine pro-B cells), retroviral transduction, puromycin selection, IL3-independent pool
Outline: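 72 h proliferation, Ba/F3 EGFR mutants (no IL3, puromycin-selected pools, EGFR confirmed by Western blot). Seeding of 400 L858R, 600 L858R/C797S and 800 exon 19del/FQEA cells per well. CellTiter-Glo used; controls were […] (high) and medium alone (low).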

EGFR (CUTO14 cells) = EGFR (CUTO14 cells) (Homo sapiens, UniProt P00533); assay: Inhibitor activity on EGFR phosphorylation (pEGFR AlphaLISA, 2 h), CUTO14 cells
Source text: (§18) Example B. Inhibitor Activity on EGFR phosphorylation (pEGFR)
(§19) EGFR mutant Ba/F3 cells were generated by transduction with retrovirus containing vectors expressing EGFR L858R, EGFR exon 19del, EGFR L858R/C797S, EGFR exon 20 NPG Ins D770_N771, EGFR exon 20 ASV Ins V769_D770, or EGFR exon 20 SVD Ins D770_N771 genes along with a puromycin selection marker. Transduced cells are selected with puromycin for 7 days and are then be transferred into culture media without Interleukin 3 (IL3). Surviving cells are confirmed to express EGFR by Western blot and maintained as a pool. CUTO14 cells were obtained from Dr. Robert C. Doebele at the University of Colorado. The IC50 date are included in Table 6 and Table 7.
as §3
(§20) 1.2 Cells are diluted with culture medium to the desired density and 40 μL of cell suspension is added into each well of 384-well cell culture plate and the seeding density is 50K cells/well (Ba/F3) or 12.5K cells/well (CUTO14).
as §5, §6, §7
(§21) 2.3 Transfer 5 nL of diluted compound from compound source plate into the cell plate.
(§22) 2.4 After compound treatment for 2 hours, perform pEGFR detection by AlphaLISA for compound treatment plates as described in “Detection” section.
(§23) 3 Detection by pEGFR AlphaLISA (Perkin-Elmer)
(§24) 3.1 Plates are removed from incubators and equilibrated at room temperature for 10 minutes, and media was removed
(§25) 3.2 10 μL of lysis buffer is added and plates shaken at 600 rpm for 1 hr.
(§26) 3.3 Prepare acceptor mix just before use and dispense 5 μL of acceptor mix to all the wells. Shake 350 rpm for Ihr in the dark
(§27) 3.4 Prepare donor mix under low light conditions prior to use. Dispense 5 μL of donor mix to all the wells. Mix well on the shaker, seal and wrap in aluminum foil and incubate 1.5 hrs at room temperature in the dark
(§28) 3.5 Transfer 18.5 μL mixture to OptiPlate 384, and read using an Envision. The IC50 date were included in Table 6 and Table 7.

[6] = biological target: T7, EGFR L858R/C797S (Ba/F3 cells) (Homo sapiens, UniProt P00533, C797S/L858R); assay: Inhibitor activity on EGFR-dependent cell growth (CellTiter-Glo, 72 h), Ba/F3 EGFR L858R/C797S; settings: read-out: BaF3 L858R/C797S IC50
T7 construct: expressed in transfected cells; host or cells: Ba/F3 (murine pro-B cells), retroviral transduction, puromycin selection, IL3-independent pool
Source text: as §1, §2, §3, §4, §5, §6, §7, §8, §9, §10, §11, §12, §13, §14, §15, §16

[7] = biological target: T7, EGFR L858R/C797S (Ba/F3 cells); assay: Inhibitor activity on EGFR phosphorylation (pEGFR AlphaLISA, 2 h), Ba/F3 EGFR L858R/C797S
Source text: as §18, §19, §3, §20, §5, §6, §7, §21, §22, §23, §24, §25, §26, §27, §28

T3 sequence (P00533 with tags, fused parts or gaps INS770NPG): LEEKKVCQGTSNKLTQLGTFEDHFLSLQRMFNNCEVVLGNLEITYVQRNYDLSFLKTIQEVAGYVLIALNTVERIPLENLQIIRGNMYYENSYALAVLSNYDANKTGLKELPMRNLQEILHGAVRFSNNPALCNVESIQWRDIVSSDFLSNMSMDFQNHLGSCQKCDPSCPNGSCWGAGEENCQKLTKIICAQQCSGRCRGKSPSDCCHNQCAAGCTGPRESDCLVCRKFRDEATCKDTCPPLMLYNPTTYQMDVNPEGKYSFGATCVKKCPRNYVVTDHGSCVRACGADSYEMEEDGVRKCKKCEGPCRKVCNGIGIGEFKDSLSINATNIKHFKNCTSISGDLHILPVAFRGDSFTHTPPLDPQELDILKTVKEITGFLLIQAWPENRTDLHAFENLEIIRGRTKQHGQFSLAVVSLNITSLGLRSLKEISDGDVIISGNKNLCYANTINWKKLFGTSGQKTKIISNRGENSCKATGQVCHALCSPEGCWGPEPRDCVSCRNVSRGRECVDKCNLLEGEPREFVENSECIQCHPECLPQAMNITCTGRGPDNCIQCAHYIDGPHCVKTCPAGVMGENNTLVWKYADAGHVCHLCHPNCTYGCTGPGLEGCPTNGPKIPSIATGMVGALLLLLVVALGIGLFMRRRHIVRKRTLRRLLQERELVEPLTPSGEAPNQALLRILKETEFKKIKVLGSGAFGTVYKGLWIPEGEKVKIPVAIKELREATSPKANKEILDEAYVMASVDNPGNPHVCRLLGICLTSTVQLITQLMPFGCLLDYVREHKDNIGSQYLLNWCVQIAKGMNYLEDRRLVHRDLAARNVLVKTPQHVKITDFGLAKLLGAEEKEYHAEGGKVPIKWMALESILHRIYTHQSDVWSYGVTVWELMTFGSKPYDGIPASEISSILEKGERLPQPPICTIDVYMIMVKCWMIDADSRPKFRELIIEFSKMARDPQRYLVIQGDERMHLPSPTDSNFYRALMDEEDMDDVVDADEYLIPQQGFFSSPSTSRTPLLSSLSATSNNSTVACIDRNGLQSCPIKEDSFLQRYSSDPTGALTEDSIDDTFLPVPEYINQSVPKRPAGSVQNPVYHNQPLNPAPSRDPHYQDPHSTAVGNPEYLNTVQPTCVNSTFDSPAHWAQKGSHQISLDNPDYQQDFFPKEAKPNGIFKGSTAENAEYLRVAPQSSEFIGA
T7 sequence (P00533 25-1210 C797S/L858R): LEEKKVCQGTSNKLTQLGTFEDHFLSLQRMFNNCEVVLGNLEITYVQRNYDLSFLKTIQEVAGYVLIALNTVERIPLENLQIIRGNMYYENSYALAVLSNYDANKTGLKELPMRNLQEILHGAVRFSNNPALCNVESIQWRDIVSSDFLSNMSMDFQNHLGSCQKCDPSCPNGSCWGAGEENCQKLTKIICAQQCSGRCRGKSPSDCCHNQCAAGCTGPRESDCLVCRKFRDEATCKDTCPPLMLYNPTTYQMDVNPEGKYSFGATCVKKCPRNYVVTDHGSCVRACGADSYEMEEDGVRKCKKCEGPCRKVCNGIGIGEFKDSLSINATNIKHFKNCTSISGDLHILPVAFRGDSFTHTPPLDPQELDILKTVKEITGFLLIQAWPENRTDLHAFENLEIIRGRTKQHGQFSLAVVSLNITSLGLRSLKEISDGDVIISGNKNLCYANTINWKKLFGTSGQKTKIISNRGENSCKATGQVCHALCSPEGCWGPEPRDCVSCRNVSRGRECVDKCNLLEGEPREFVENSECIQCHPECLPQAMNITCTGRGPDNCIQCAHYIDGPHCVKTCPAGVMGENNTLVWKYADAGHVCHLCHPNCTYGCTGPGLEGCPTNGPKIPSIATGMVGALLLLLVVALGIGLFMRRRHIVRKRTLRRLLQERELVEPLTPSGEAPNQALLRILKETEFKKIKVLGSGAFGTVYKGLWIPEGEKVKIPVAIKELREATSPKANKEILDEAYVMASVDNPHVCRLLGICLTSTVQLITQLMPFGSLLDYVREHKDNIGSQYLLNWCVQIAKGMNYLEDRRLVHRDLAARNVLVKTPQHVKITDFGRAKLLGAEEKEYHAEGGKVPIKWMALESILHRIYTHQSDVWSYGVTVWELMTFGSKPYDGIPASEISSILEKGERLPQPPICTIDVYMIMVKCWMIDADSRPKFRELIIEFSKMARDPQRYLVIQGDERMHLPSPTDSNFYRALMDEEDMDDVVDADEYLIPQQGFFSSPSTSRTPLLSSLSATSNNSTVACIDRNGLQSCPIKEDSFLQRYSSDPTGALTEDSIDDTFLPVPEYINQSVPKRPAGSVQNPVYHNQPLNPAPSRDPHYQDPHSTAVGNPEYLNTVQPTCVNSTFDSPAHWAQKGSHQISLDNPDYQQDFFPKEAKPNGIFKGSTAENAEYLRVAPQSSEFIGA
EGFR (CUTO14 cells), sequence (P00533 with tags, fused parts or gaps DUP767-769): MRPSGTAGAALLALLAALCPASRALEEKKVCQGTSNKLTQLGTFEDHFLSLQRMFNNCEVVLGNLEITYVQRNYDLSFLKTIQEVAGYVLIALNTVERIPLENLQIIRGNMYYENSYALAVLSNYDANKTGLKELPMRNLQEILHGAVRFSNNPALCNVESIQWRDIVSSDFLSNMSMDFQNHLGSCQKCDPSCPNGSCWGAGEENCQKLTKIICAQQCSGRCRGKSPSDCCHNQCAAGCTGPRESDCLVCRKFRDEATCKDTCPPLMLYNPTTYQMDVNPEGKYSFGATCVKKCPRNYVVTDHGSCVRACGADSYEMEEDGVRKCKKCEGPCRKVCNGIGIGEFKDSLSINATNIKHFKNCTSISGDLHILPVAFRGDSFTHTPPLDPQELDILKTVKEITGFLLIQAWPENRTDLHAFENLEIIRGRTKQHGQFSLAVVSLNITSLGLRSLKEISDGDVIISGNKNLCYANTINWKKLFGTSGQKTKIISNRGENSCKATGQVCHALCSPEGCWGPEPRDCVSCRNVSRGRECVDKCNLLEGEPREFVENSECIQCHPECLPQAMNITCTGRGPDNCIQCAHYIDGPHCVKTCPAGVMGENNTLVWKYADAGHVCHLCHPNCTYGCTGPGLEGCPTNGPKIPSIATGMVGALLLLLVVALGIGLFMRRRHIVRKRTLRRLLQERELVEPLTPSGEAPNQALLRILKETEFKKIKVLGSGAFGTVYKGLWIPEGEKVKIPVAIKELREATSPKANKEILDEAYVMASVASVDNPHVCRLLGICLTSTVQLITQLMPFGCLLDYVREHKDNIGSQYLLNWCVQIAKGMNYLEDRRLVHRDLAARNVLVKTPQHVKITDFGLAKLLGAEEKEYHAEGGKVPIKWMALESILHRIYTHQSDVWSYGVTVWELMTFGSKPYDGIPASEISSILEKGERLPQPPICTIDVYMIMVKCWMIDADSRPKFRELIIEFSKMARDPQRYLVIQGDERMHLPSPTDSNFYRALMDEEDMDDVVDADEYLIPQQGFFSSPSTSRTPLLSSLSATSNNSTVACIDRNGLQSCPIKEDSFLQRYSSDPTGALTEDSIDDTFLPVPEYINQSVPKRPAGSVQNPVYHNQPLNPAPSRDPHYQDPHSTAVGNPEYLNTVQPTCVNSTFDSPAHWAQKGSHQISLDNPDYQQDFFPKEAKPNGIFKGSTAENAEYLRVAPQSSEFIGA
EGFR exon 19del (Ba/F3 cells), sequence (P00533 with tags, fused parts or gaps DEL746-750): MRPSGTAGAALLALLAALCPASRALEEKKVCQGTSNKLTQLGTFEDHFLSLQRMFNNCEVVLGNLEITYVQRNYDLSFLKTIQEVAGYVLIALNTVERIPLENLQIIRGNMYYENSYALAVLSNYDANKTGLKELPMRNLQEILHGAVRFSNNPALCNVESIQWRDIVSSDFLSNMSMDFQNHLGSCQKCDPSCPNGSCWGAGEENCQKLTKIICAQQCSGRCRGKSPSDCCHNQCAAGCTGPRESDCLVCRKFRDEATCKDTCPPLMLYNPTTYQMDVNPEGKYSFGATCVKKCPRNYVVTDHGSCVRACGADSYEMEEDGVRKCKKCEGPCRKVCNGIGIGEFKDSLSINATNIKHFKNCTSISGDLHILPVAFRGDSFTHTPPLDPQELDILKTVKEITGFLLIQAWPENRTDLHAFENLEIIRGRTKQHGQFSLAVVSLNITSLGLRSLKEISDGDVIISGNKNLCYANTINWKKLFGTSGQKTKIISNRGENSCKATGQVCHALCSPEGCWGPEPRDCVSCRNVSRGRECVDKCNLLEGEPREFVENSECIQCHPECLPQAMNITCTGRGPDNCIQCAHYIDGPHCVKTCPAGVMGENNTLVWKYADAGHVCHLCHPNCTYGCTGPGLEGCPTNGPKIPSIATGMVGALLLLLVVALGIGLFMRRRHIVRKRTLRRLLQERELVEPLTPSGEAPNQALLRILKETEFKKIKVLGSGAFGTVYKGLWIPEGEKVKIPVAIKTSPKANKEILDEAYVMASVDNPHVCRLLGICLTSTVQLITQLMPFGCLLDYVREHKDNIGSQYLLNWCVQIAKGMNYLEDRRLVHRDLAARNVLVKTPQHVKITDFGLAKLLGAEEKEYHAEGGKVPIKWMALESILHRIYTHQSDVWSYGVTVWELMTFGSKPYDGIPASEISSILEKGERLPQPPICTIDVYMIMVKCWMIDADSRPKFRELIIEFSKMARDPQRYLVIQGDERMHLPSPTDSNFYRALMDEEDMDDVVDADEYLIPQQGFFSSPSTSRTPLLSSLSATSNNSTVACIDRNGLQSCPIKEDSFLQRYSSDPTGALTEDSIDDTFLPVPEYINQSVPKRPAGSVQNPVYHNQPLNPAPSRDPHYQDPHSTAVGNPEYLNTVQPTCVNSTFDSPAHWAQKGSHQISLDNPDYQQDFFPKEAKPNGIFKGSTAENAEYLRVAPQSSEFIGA

Row | Structure (SMILES) | IC50 (EGFR L858R (Ba/F3 cells)) [nM] | IC50 [1] [nM] | IC50 (EGFR WT (Ba/F3 cells)) [nM] | IC50 [2] [nM] | IC50 [3] [nM] | IC50 [4] [nM] | IC50 [5] [nM] | IC50 (EGFR (CUTO14 cells)) [nM] | IC50 [6] [nM] | IC50 [7] [nM]
1 | COc1c(Cl)cccc1Nc1c(-c2ccnc(N)n2)[nH]c2c1C(=O)NC[C@H]2C[C@H]1COCCO1 [Compound 571, (7R)-2-(2-aminopyrimidin-4-yl)-3-[(3-chloro-2-methoxyphenyl)amino]-7-[(2S)-1,4-dioxan-2-ylmethyl]-1H,5H,6H,7H-pyrrolo[3,2-c]pyridin-4-one] | < 100 | < 100 | 100 to 1000 | < 100 | < 100 | < 100 | < 100 | < 100 |  | 
2 | COc1c(Cl)cc(F)cc1Nc1c(-c2ccnc(C)n2)[nH]c2c1C(=O)NC[C@@H]2C[C@@H]1COCCO1 [compound 651] |  |  | 100 to 1000 | < 100 | < 100 | < 100 |  | < 100 | < 100 | < 100
3 | COc1c(Cl)cccc1Nc1c(-c2ccnc(C)n2)[nH]c2c(C[C@@H]3COCCO3)c[nH]c(=O)c12 [compound 655, 3-[(3-chloro-2-methoxyphenyl)amino]-7-[(2R)-1,4-dioxan-2-ylmethyl]-2-(2-methylpyrimidin-4-yl)-1H,5H-pyrrolo[3,2-c]pyridin-4-one] | < 100 | < 100 | 100 to 1000 | < 100 | < 100 | < 100 |  | < 100 |  | 
4 | COc1c(Cl)cccc1Nc1c(-c2ccncn2)[nH]c2c(C[C@@H]3COCCO3)c[nH]c(=O)c12 [compound 656] | < 100 | < 100 | > 1000 | < 100 | < 100 | < 100 |  | < 100 |  | 
5 | COc1c(Cl)cccc1Nc1c(-c2ccncc2F)[nH]c2c(C[C@@H]3COCCO3)c[nH]c(=O)c12 [compound 657] | < 100 | < 100 | 100 to 1000 | < 100 | < 100 | < 100 |  | < 100 | < 100 | < 100
6 | COc1c(F)cccc1Nc1c(-c2ccnc(C)n2)[nH]c2c(C[C@@H]3COCCO3)c[nH]c(=O)c12 [compound 658] | < 100 | < 100 | 100 to 1000 | < 100 | < 100 | < 100 |  | < 100 | < 100 | < 100

From patent US20240101576A1, “HETEROCYCLIC INHIBITORS OF EGFR AND/OR HER2, FOR USE IN THE TREATMENT OF CANCER” (Scorpion Therapeutics, Inc., priority 2020, published 2024)
